# Results from patent publication US20030176314A1, “Compounds for the treatment of pain” (priority 2001, published 2003).
# Where two headings read alike, the source gives them in different places.
# Columns and labels:
# rat NPFF2 receptor [1] = biological target: T1, rat NPFF2 receptor (Rattus norvegicus, UniProt Q9EQD2); experiment: Competition binding at cloned rat NPFF2 receptor ([125I]1DMeNPFF displacement)
# T1 construct: The full-length NPFF2 was amplified from rat spinal cord cDNA; expressed in transfected cells; host or cells: not given
# Protocol: (§1) Transfected cells from culture flasks are scraped into 5 ml of 20 mM Tris-HCl, 5 mM EDTA, pH 7.5, and lysed by sonication. The cell lysates are centrifuged at 1000 rpm for 5 min. at 4° C., and the supernatant is centrifuged at 30,000×g for 20 min. at 4° C. […] Optimal membrane suspension dilutions, defined as the protein concentration required to bind less than 10% of the added radioligand, […], unlabeled compounds, and binding buffer to a final volume of 250 μl. In equilibrium saturation binding assays membrane preparations are incubated in the presence of increasing concentrations of [^3H]-labeled compound.
# (§2) Competition assay: 50 pM radioligand, 10-12 points. Binding reaction mixtures are incubated for 2 hr at 25° C., and the reaction stopped by filtration through a double layer of GF filters treated with 0.1% polyethyleneimine, using a cell harvester. Wash buffer: 50 mM Tris-HCl, 0.1% BSA. Radioactivity may be measured by scintillation counting and data are analyzed by a computerized non-linear regression program. Non-specific binding is defined as the amount of radioactivity remaining after incubation of membrane protein in the presence of 1 μM final concentration […]. Protein concentration may be measured by the Bradford method using Bio-Rad Reagent, with bovine serum albumin as a standard.
# rat NPFF2 receptor [2] = biological target: T1, rat NPFF2 receptor; experiment: Functional assay (agonist potency, intrinsic activity) at cloned rat NPFF2 receptor; format: cell-based; conditions: for rNPFF2 IA: Table 7, intrinsic activity; for Functional Activity rNPFF2 I.A. %: percent of maximum response elicited by neuropeptide FF
# rat NPFF1 receptor [3] = biological target: T2, rat NPFF1 receptor (Rattus norvegicus, UniProt Q9EP86); experiment: Competition binding at cloned rat NPFF1 receptor ([125I]1DMeNPFF displacement)
# T2 construct: expressed in transfected cells; host or cells: not given
# Protocol: as §1, with “radioligand, are” for “radioligand,”, “In equilibrium saturation binding assays membrane preparations are incubated in the presence of increasing concentrations of [^3H]-labeled compound.” left out
# as §2
# rat NPFF1 receptor [4] = biological target: T2, rat NPFF1 receptor; experiment: Functional assay (agonist potency, intrinsic activity) at cloned rat NPFF1 receptor; format: cell-based; conditions: for rNPFF1 IA: Table 7, intrinsic activity; for Functional Activity rNPFF1 I.A. %: percent of maximum response elicited by neuropeptide FF
# [5] = biological target: T3, norepinephrine (NE) transporter (Rattus norvegicus, UniProt Q63380); experiment: Binding at native norepinephrine transporter (NE uptake); conditions: Table 8
# T3 construct: evaluated at native, tissue-derived transporters; from tissue
# Protocol: (§3) Transporters: The binding properties of compounds were evaluated at native, tissue-derived transporters, namely serotonin (5HT) transporter and norepinephrine (NE) transporter, according to protocols described in Owens (1997), the disclosure of which is hereby incorporated by reference in its entirety into this application.
# (§4) The binding affinity (Ki) of these compounds were tested according to the protocols described herein at the following receptors; human α1A, α1B, α1D, α2A, α2B, and α2C adrenergic receptors; human Y1, Y2, Y4, and Y5 receptors; and N-Methyl-D-aspartic acid (NMDA) receptor channels. The binding interactions of these compounds were additionally tested at the norepinephrine (NE) transporter (NE uptake) and serotonin (5-hydroxytryptamine (5HT)) transporter (5HT uptake) according to protocols described herein
# [6] = biological target: T4, serotonin (5HT) transporter (Rattus norvegicus, UniProt P31652); experiment: Binding at native serotonin transporter (5HT uptake); conditions: Table 8
# T4 construct: evaluated at native, tissue-derived transporters; from tissue
# Protocol: as §3, §4
# [7] = Table 3, recombinant rat NPFF2, read-out: rNPFF2 Ki
# [8] = Table 7, agonist potency, read-out: rNPFF2 EC50
# [9] = Table 3, recombinant rat NPFF1, read-out: rNPFF1 Ki
# [10] = Table 7, agonist potency, read-out: rNPFF1 EC50
# T2 sequence (Q9EP86 whole entry): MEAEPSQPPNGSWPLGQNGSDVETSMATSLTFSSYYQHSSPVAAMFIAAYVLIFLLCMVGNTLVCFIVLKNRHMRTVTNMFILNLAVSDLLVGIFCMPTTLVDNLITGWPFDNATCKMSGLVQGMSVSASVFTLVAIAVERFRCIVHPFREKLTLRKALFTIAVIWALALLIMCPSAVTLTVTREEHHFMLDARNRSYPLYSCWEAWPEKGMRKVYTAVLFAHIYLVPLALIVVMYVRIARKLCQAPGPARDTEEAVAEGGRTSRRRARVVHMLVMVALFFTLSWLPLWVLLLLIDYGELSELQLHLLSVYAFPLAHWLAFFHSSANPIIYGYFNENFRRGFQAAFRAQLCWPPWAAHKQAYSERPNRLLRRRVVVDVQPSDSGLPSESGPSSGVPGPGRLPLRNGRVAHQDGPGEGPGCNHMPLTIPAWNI
# T1 sequence (Q9EQD2 whole entry): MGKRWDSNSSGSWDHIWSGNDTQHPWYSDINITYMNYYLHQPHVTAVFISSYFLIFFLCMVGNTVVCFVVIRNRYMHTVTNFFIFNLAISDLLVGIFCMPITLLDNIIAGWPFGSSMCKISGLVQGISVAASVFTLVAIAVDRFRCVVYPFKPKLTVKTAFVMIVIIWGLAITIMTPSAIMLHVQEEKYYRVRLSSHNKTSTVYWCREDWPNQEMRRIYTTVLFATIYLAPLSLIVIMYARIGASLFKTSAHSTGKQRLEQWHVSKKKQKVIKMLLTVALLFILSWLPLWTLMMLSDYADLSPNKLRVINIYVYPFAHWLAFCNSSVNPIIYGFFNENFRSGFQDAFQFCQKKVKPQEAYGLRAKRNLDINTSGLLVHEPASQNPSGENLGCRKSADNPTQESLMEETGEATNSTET
# T4 sequence (P31652 whole entry): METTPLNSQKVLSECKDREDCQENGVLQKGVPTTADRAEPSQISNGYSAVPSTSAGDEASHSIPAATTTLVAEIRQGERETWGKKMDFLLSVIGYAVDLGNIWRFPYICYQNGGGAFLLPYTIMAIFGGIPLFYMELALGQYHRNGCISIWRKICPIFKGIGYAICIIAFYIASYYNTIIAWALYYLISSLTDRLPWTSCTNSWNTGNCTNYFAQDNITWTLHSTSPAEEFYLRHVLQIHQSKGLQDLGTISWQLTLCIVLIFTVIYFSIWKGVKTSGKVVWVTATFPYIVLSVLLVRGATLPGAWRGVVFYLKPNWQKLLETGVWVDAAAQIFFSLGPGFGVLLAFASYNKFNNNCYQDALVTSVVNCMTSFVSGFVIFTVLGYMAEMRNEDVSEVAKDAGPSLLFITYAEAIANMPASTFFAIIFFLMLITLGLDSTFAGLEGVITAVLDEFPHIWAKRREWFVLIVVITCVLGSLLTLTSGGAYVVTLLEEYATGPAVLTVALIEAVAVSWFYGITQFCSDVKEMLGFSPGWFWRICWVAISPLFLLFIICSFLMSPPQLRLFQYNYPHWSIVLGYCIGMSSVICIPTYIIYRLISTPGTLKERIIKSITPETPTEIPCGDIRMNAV
# T3 sequence (Q63380 1-617): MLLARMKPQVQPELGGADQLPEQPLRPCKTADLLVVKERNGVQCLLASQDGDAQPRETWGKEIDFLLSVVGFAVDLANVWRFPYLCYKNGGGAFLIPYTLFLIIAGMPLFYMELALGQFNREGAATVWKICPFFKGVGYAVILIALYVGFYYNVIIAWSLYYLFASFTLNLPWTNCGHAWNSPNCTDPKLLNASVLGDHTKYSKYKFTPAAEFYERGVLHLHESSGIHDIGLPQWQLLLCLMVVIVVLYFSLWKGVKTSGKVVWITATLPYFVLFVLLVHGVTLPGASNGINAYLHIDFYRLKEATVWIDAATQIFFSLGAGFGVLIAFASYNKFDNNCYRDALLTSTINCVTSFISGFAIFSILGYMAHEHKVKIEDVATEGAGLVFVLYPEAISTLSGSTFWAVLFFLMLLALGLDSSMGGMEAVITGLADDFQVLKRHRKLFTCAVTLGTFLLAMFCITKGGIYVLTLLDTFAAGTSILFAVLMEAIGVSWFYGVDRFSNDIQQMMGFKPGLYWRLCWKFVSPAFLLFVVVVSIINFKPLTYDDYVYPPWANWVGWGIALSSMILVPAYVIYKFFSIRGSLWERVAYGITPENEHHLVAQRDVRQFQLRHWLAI
structure (smiles),measurement,setting,value
"Cc1nc(NC(=N)N)nc2ccc(OCCCCCOc3ccccc3)cc12 [Compound 1005A, N-4-methyl-6-[(5-phenoxypentyl)oxy]-2-quinazolinylguanidine]",Ki,rat NPFF2 receptor [1]; [7],2140 nM
same,EC50,rat NPFF2 receptor [2]; [8],3160 nM
same,rNPFF2 IA,rat NPFF2 receptor [2],21% NPFF
same,Ki,rat NPFF1 receptor [3]; [9],316 nM
same,EC50,rat NPFF1 receptor [4]; [10],> 10000 nM
same,rNPFF1 IA,rat NPFF1 receptor [4],Inactive
"Cc1nc(NC(=N)N)nc2ccc(Cl)cc12 [Compound 1013A, N-(6-chloro-4-methyl-2-quinazolinyl)guanidine]",rNPFF2 IA,rat NPFF2 receptor [2],52% NPFF
same,Ki,[5],41200 nM
same,Ki,[6],2020 nM
COc1ccc(Br)cc1S(=O)(=O)N[C@@H](CCCNC(=N)N)C(=O)N[C@@H](Cc1ccccc1)C(N)=O [Compound 1025B],Ki,"rat NPFF2 receptor [1]; Table 4, read-out: Ki Values rNPFF2",4120 nM
same,Functional Activity rNPFF2 I.A. %,rat NPFF2 receptor [2]; Table 4,33%
same,EC50,"rat NPFF2 receptor [2]; Table 4, read-out: Functional Activity rNPFF2 EC50",> 3160 nM
same,Ki,"rat NPFF1 receptor [3]; Table 4, read-out: Ki Values rNPFF1",328 nM
same,Functional Activity rNPFF1 I.A. %,rat NPFF1 receptor [4]; Table 4,78%
same,EC50,"rat NPFF1 receptor [4]; Table 4, read-out: Functional Activity rNPFF1 EC50",596 nM
CCc1nc(NC(=N)N)nc2ccc(C)cc12 [Compound 1027A],Ki,rat NPFF2 receptor [1]; [7],3150 nM
same,EC50,rat NPFF2 receptor [2]; [8],> 10000 nM
same,rNPFF2 IA,rat NPFF2 receptor [2],31% NPFF
same,Ki,rat NPFF1 receptor [3]; [9],606 nM
same,EC50,rat NPFF1 receptor [4]; [10],> 10000 nM
same,rNPFF1 IA,rat NPFF1 receptor [4],Inactive
"Cc1nc(NC(=N)N)nc2ccc(C3CCCCC3)cc12 [Compound 1029A, N-(6-cyclohexyl-4-methyl-2-quinazolinyl)guanidine]",rNPFF2 IA,rat NPFF2 receptor [2],31% NPFF
same,rNPFF1 IA,rat NPFF1 receptor [4],28% NPFF
N=C(N)NCCC[C@H](NS(=O)(=O)c1ccc2ccccc2c1)C(=O)N[C@H](Cc1ccccc1)C(N)=O [Compound 1029B],Ki,"rat NPFF2 receptor [1]; Table 5, D-Arg- or D-Phe-containing compounds, read-out: Ki Values rNPFF2",2690 nM
same,Functional Activity rNPFF2 I.A. %,rat NPFF2 receptor [2]; Table 5,86%
same,EC50,"rat NPFF2 receptor [2]; Table 5, read-out: Functional Activity rNPFF2 EC50",> 3160 nM
same,Ki,"rat NPFF1 receptor [3]; Table 5, D-Arg- or D-Phe-containing compounds, read-out: Ki Values rNPFF1",399 nM
same,Functional Activity rNPFF1 I.A. %,rat NPFF1 receptor [4]; Table 5,30%
same,EC50,"rat NPFF1 receptor [4]; Table 5, read-out: Functional Activity rNPFF1 EC50",477 nM
"Cc1nc(NC(=N)N)nc2ccc(Oc3ccccc3)cc12 [Compound 1032A, N-(4-methyl-6-phenoxy-2-quinazolinyl)guanidine]",rNPFF2 IA,rat NPFF2 receptor [2],93% NPFF
same,rNPFF1 IA,rat NPFF1 receptor [4],31% NPFF
"Cc1nc(NC(=N)N)nc2ccc(CCCC(C)O)cc12 (stereo not drawn) [Compound 1034A, N-(6-[1-(4-hydroxyl-pentyl)]-4-methyl-2-quinazolino)guanidine]",rNPFF2 IA,rat NPFF2 receptor [2],101% NPFF
same,rNPFF1 IA,rat NPFF1 receptor [4],63% NPFF
"Cc1nc(NC(=N)N)nc2cc3ccoc3cc12 [Compound 1039A, N-(4-methylfuro[2,3-g]quinazolin-2-yl)guanidine]",rNPFF2 IA,rat NPFF2 receptor [2],78% NPFF
same,EC50,rat NPFF1 receptor [4]; [10],> 10000 nM
N=C(N)NCCC[C@H](NS(=O)(=O)c1ccccc1Br)C(=O)N[C@@H](Cc1ccccc1)C(N)=O [Compound 2001B],Functional Activity rNPFF2 I.A. %,rat NPFF2 receptor [2]; Table 4,9%
same,Functional Activity rNPFF1 I.A. %,rat NPFF1 receptor [4]; Table 4,81%
N=C(N)NCCC[C@H](NS(=O)(=O)c1ccc([N+](=O)[O-])cc1[N+](=O)[O-])C(=O)N[C@@H](Cc1ccccc1)C(N)=O [Compound 2002B],Functional Activity rNPFF2 I.A. %,rat NPFF2 receptor [2]; Table 4,5%
same,Functional Activity rNPFF1 I.A. %,rat NPFF1 receptor [4]; Table 4,34%
